# Results published in patent US12115208B2, “Small-molecule adjuvants for antibiotics to address antibiotic resistance” (HIGH POINT UNIVERSITY, priority 2017, dated 2024).
# “And” between values parts separate entries of the source, which are not always exact repeats. Identical values can stand only once. Like-named read-outs stand apart in the source and are kept apart here.
# Experiments:
# S. aureus ATCC 29213 [1] = assay: Antibiotic repotentiation (antibiotic MIC with/without compound); type: cell-based, Staphylococcus aureus; settings: for Oxacillin MIC: ATCC 29213
# Procedure: (§1) The overnight culture was diluted into fresh CAMHB to a concentration of 5×10^5 CFU/ml. […] On the same plate, a standard microdilution MIC with the tested antibiotics and no added compound was also performed to compare the antibiotic MIC in the presence and absence of compound. […] Fold reductions were calculated by dividing the MIC of the antibiotic without compound by the MIC of the antibiotic in the presence of compound.
# (§2) The compounds were then analyzed for antibiotic repotentiation activity. […] The tested strains included USA300, which is a common and particularly virulent strain of community-acquired MRSA.
# S. aureus USA300 (MRSA) [2] = assay: as above; type: cell-based, Staphylococcus aureus; settings: for MIC of antibiotic: MRSA USA300
# Procedure: as §1, §2
# S. aureus USA300 (MRSA) [3] = assay: Minimum inhibitory concentration, broth microdilution; type: cell-based, Staphylococcus aureus; settings: Staphylococcus aureus; compound alone; S. aureus USA300 (MRSA); CAMHB, 18 h; read-out: MIC
# Procedure: as §2
# [4] = tested on: S. aureus ATCC 43300 (MRSA); assay: as above; type: cell-based, Staphylococcus aureus; settings: Staphylococcus aureus; compound alone; S. aureus ATCC 43300 (MRSA); CAMHB, 18 h; read-out: MIC
# Procedure: as §2
# S. aureus ATCC 29213 [5] = assay: as above; type: cell-based; settings: Staphylococcus aureus, ATCC29213; compound alone; S. aureus ATCC 29213; CAMHB, 18 h; read-out: MIC
# Procedure: as §2
# S. epidermidis 49461 = assay: Antibiotic repotentiation (oxacillin MIC with/without compound); type: cell-based, Staphylococcus epidermidis
# Procedure: as §1
# Antibiotic potentiation in S. epidermidis was also investigated.
# blaI mRNA = assay: RT-qPCR mRNA levels; type: cell-based, Staphylococcus aureus (MRSA)
# Procedure: (§3) Triplicate cultures of each condition were briefly centrifuged and cell pellets were stored at −80° C. Pellets were resuspended in 100 uL of lyphostaphin (1 mg/mL) and incubated at room temperature for 10 minutes. Next, lysates were subjected to a Qiashredder column and RNA was purified with RNeasy columns according to the manufacturer's protocol (Qiagen). An on-column DNase step was also included. Total RNA was quantified and purity was assessed with a Nanodrop spectrophotometer (Thermo Scientific). RNA integrity was visualized by agarose gel electrophoresis using GelRed (Phenix) and a ChemiDoc MP (BioRad).
# (§4) 200 ng of total RNA was reverse transcribed using random primers, according to the manufacturer's protocol (BioRad select cDNA synthesis kit). Minus reverse transcriptase controls were prepared for each sample. Next, duplicate qPCR reactions were performed for each cDNA template using SYBR green according to the manufacturer's protocol (BioRad SYBR Green Supermix). Primer sequences are found in Supporting Information. Those that the authors designed used NCBI Primer Blast to specify the annealing temperatures, length, location, and analyze specificity and secondary structure. All reactions were run on a StepOne thermal cycler (Applied Biosystems). Cycling parameters were as follows: 95° C. for 10 minutes, 40 cycles of 95° C. for 15 seconds followed by 60° C. for 1 minute. Specificity of each primer pair was assessed with melt curve analyses and agarose gel electrophoresis. The efficiency of each primer pair was calculated using results from calibration curves generated in Microsoft Excel. Contaminating genomic DNA levels were calculated using the comparative Ct method. Gene expression levels relative to 16S rRNA were calculated using a relative quantification model.^17 Statistical significance was determined by unpaired student's t tests. All calculations were performed using Microsoft Excel.
# (§5) See Blazquez, B. et al., “Regulation of the expression of the beta-lactam antibiotic-resistance determinants in methicillin-resistant Staphylococcus aureus (MRSA),” Biochemistry 2014, 53 (10), 1548; Staude, M. W. et al., “Investigation of signal transduction routes within the sensor/transducer protein BlaR1 of Staphylococcus aureus,” Biochemistry 2015, 54 (8), 1600; Thumanu, K., et al., “Discrete steps in sensing of beta-lactam antibiotics by the BlaR1 protein of the methicillin-resistant Staphylococcus aureus bacterium,” Proc Natl Acad Sci USA 2006, 103 (28), 10630, which are incorporated herein by reference in their entireties.
# blaZ mRNA = assay: RT-qPCR mRNA levels; type: cell-based, Staphylococcus aureus (MRSA)
# Procedure: as §3, §4, §5
# MRSA = assay: Growth curves; type: cell-based, Staphylococcus aureus; settings: MRSA in CAMHB; for effect on cell density (OD 600 nm) after 24 hours: single treatment: oxacillin 1 μg/mL alone or amoxapine 150 μM alone
# Procedure: The overnight culture was diluted into fresh CAMHB to a concentration of 5×10^5 CFU/ml. The cell suspension (3 mL) was aliquoted into sterile culture tubes and compound was added to achieve the desired concentrations. An untreated aliquot served as the control. 200 μl of each suspension or of the untreated control was aliquoted into a flat-bottomed microtiter plate. The plate was maintained at 37° C. with shaking and absorbance readings (600 nm) were recorded every 30 minutes for 24 hours.
# MRSA was grown in cation-adjusted Mueller-Hinton broth (CAMHB). […] The optical density of the cultures at 600 nm was measured every 2 hours for 8 hours and again at 24 hours.
# pbp2 mRNA = assay: RT-qPCR mRNA levels; type: cell-based, Staphylococcus aureus (MRSA); settings: co-treatment amoxapine and oxacillin vs oxacillin alone
# Procedure: as §3
# (§6) 200 ng of total RNA was reverse transcribed using random primers, according to the manufacturer's protocol (BioRad select cDNA synthesis kit). Minus reverse transcriptase controls were prepared for each sample. […] Specificity of each primer pair was assessed with melt curve analyses and agarose gel electrophoresis. The efficiency of each primer pair was calculated using results from calibration curves generated in Microsoft Excel. Contaminating genomic DNA levels were calculated using the comparative Ct method. Gene expression levels relative to 16S rRNA were calculated using a relative quantification model.^17 Statistical significance was determined by unpaired student's t tests. […]
# mecA mRNA = type: cell-based, Staphylococcus aureus (MRSA); settings: co-treatment amoxapine and oxacillin vs oxacillin alone
# Procedure: as §3, §6
# mecI mRNA = type: cell-based, Staphylococcus aureus (MRSA); settings: co-treatment amoxapine and oxacillin vs oxacillin alone
# Procedure: as §3, §6
# [6] = target: β-lactamase, MSSA ATCC 29213 (Staphylococcus aureus, UniProt P00807); settings: MSSA 29213
# Procedure: For whole cell nitrocefin assays, bacteria was cultured overnight in CAMHB at 37° C. with shaking. The overnight culture was subcultured 1:100 in fresh CAMHB and grown at 37° C. with shaking to mid-log phase (OD600=0.4-0.6). The culture was adjusted to an OD600 of 0.2 in fresh CAMHB. […] These suspensions were incubated at 37° C. with shaking for thirty minutes. The suspensions were adjusted to an OD600 of 0.132 in phosphate buffered saline (PBS, pH 7, 900 μl). A 100 μl of a stock solution of nitrocefin (500 mg/ml in PBS) was added to these suspensions and mixed. The nitrocefin-bacteria suspensions (100 μl) were added to the wells of a clear 96-well polystyrene microtiter plate. A 50 mg/ml solution of nitrocefin in PBS served as a blank. Using BioTek Synergy H1 microplate reader maintained at 37° C., the absorbance at 486 nm was recorded every 5 minutes for 2 hours.
# The known β-lactamase inhibitor sulbactam was used as a positive control. Again, all assays were run in triplicate and each data point represents the average of three data points.
# S. aureus 43300 (MRSA) = assay: Antibiotic repotentiation (antibiotic MIC with/without compound); type: cell-based, Staphylococcus aureus
# Procedure: as §1, §2
# S. aureus USA100 (MRSA) = assay: as above; type: cell-based, Staphylococcus aureus; settings: for MIC of antibiotic: MRSA USA100
# Procedure: as §1
# [7] = tested on: S. aureus NR-49120 (VRSA); assay: as above; type: cell-based, Staphylococcus aureus; settings: VRSA NR-49120
# Procedure: as §1
# [8] = co-treatment amoxapine and oxacillin vs oxacillin alone
# [9] = treatment alone, compared to untreated cells
# [10] = oxacillin treatment, relative to 16S rRNA
# β-lactamase, MSSA ATCC 29213, sequence (P00807 25-281): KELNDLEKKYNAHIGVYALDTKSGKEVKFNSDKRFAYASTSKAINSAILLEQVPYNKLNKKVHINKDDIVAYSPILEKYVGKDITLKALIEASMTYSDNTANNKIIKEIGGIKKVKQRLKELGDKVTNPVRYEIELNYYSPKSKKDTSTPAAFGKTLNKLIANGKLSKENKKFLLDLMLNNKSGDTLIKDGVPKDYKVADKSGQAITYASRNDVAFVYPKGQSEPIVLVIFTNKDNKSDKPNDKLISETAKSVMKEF
compound,measurement,setting,value
"Clc1ccc2c(c1)C(N1CCNCC1)=Nc1ccccc1O2 [Amoxapine, 2-chloro-11-(1-piperazinyl)dibenz[b,f][1,4]oxazepine]",Oxacillin MIC,S. aureus ATCC 29213 [1]; +75 μM compound,0.25 µg/mL
same,Oxacillin MIC,S. aureus ATCC 29213 [1]; +150 μM compound,0.125 µg/mL
same,Oxacillin MIC,"S. aureus USA300 (MRSA) [2]; +75 μM compound, USA300 (MRSA)",16 µg/mL
same,Oxacillin MIC,"S. aureus USA300 (MRSA) [2]; +150 μM compound, USA300 (MRSA)",2 µg/mL
same,MIC,S. aureus USA300 (MRSA) [3],600 µM
same,MIC,[4],600 µM
same,MIC,S. aureus ATCC 29213 [5],600 µM
same,Oxacillin MIC,"S. epidermidis 49461; +75 μM compound, S. epidermidis 49461",4 µg/mL
same,reduction in blaI levels,blaI mRNA; [8],2.2 fold
same,effect on mRNA levels,blaZ mRNA; amoxapine alone vs untreated control (data not shown),no significant effect
same,reduction in blaZ levels,blaZ mRNA; [8],3.0 fold
same,effect on cell density (OD 600 nm) throughout the experiment,"MRSA; combination of oxacillin (1 μg/mL) and amoxapine (150 μM), 24 h",potent inhibition of cell density
same,effect on cell density (OD 600 nm) after 24 hours,MRSA,negligible effect
same,effect on mRNA levels of pbp2,pbp2 mRNA,no significant effect
same,reduction in mecA mRNA levels,mecA mRNA,4.5 fold
same,reduction in mecI mRNA levels,mecI mRNA,3.0 fold
same,effect on β-lactamase activity (nitrocefin hydrolysis),[6]; oxacillin in combination with amoxapine,little effect
same,effect on β-lactamase activity (nitrocefin hydrolysis),[6]; [9],no effect
Cc1onc(-c2ccccc2)c1C(=O)N[C@@H]1C(=O)N2[C@@H]1SC(C)(C)[C@@H]2C(=O)O [Oxacillin],MIC,"S. aureus ATCC 29213 [1]; Staphylococcus aureus, ATCC29213, read-out: Oxacillin MIC",0.25 µg/mL
same,MIC of antibiotic,S. aureus USA300 (MRSA) [2]; +Loratadine 25 μM,2 µg/mL
same,MIC of antibiotic,S. aureus USA300 (MRSA) [2]; +Loratadine 50 μM,0.5 µg/mL
same,MIC,"S. aureus USA300 (MRSA) [2]; Staphylococcus aureus, read-out: Oxacillin MIC, oxacillin alone, S. aureus USA300 (MRSA)",32 µg/mL
same,MIC of antibiotic,S. aureus USA300 (MRSA) [2]; antibiotic alone,32 µg/mL
same,Oxacillin MIC,"S. aureus USA300 (MRSA) [2]; oxacillin alone, S. aureus USA300 (MRSA)",64 µg/mL
same,MIC of antibiotic,"S. aureus 43300 (MRSA); +Amoxapine (150 μM), S. aureus 43300 (MRSA)",2 µg/mL
same,MIC of antibiotic,"S. aureus 43300 (MRSA); +Loratadine 25 μM, MRSA 43300",4 µg/mL
same,MIC of antibiotic,"S. aureus 43300 (MRSA); +Loratadine 50 μM, MRSA 43300",1 µg/mL
same,MIC of antibiotic,"S. aureus 43300 (MRSA); antibiotic alone, no compound, S. aureus 43300 (MRSA)",32 µg/mL and 16 µg/mL
same,MIC of antibiotic,"S. aureus 43300 (MRSA); antibiotic alone, S. aureus ATCC 43300 (MRSA)",32 µg/mL
same,MIC,"S. epidermidis 49461; Staphylococcus epidermidis, 49461, 18 h, read-out: Oxacillin MIC",16 µg/mL
same,MIC of antibiotic,S. aureus USA100 (MRSA); +Loratadine 50 μM,0.25 µg/mL
same,MIC,"S. aureus USA100 (MRSA); Staphylococcus aureus, read-out: Oxacillin MIC",512 µg/mL
same,MIC of antibiotic,S. aureus USA100 (MRSA); antibiotic alone,256 µg/mL
same,MIC of antibiotic,[7]; +Loratadine 25 μM,64 µg/mL
same,MIC of antibiotic,[7]; +Loratadine 50 μM,16 µg/mL
same,increase in blaI levels,blaI mRNA; [10],13 fold
same,increase in blaZ mRNA,blaZ mRNA; [10],38 fold
same,effect on cell density (OD 600 nm) after 24 hours,MRSA,negligible effect
same,effect on β-lactamase activity (nitrocefin hydrolysis),[6]; [9],little effect
